Laboratory results taken from patent publication US7285703B2, “Plant like starches and the method of making them in hosts” (BASF Plant Science GmbH, priority 1998, dated 2007).

Legend:
[1] = target: maize starch synthase SSIIa-1, putative full length SSIIa (669 amino acids), N-terminus AEAEAGGK (SEQ ID NO:68) (Zea mays, UniProt A0A804PX87); assay: ADPGlc kinetics of starch synthase SSIIa-1; type: biochemical; settings: for Vmax (ADPGlc kinetics): amylopectin as primer, 27° C.
Excerpt: (§1) FIG. 59. SSIIa-1 and SSIIa-2 construct diagram. Two forms of SSIIa were constructed in the pET expression system. pExs3c encodes SSIIa-1, the putative full length maize SSIIa which has the N-terminal sequence AEAEAGGK (SEQ ID NO:68). […] A depiction of the waxy gene, encoding GBSS which has the N-terminal sequence ASAGMNVV (SEQ ID NO:67), is also included for comparison. The amino acid motif KTGGL (SEQ ID NO:10), the putative binding site for ADPGlc, is indicated by the triangles. The KTGGL (SEQ ID NO:10) motif is located 18 amino acids from the N-terminus in GBSS, while the motif is 194 amino acids from the N-terminus in maize SSIIa.
(§2) 5 mL of supernatant were used to assay STS and SBE activities as previously described (Preiss) with minor modification. […] […] The unincorporated [^14C]-ADPGlc was separated with Dowex anion exchange column (200-400 mesh, Sigma Chemical Co.). One unit of activity is defined as 1 nmol Glc incorporated into the a-glucan per min at 25° C. SBE activity was determined by phosphorylase stimulation assay. One unit of activity is defined as 1 mmol Glc incorporated into the a-glucan per min at. 30° C.
For the recombinant SS purification, the cell pellet was resuspended in sonication buffer (50 mM Tris-acetate, pH 7.5, 10 mM EDTA, and 5 mMDTT; 7 ml buffer per gram of cell mass), and cells were lysed using a Fisher 550 Sonic Dismembrator with 5×1 min. bursts with 30 sec. intervals. The homogenate was centrifuged at 9600 g for 30 minutes. SSI in the supernatant was then precipitated by slowly adding neutralized saturated ammonium sulfate to 40% saturation. After stirring on ice for an additional 50 minutes, proteins were collected by centrifugation at 12500 g for 45 minutes. The protein pellet was then redissolved in buffer A (50 mM Tris, pH 5.5, 1 mM EDTA, and 5 mM DTT) containing 0.1 M KCl and dialyzed against the same buffer, with one change of buffer. After dialysis, the sample was centrifuged at 13000 g for 20 minutes to remove insoluble materials. […]

[2] = target: T1, maize starch synthase SSI-2 (STSI-2), N-terminally truncated SSI, amino acids 8-52 of SSI-1 deleted, N-terminus CVAELSR/DLG (SEQ ID NO:65) (Zea mays, UniProt O49064, DEL47-91); assay: ADPGlc kinetics of starch synthase SSI-2; settings: 5 mg/ml amylopectin as primer, 37° C.
T1 sequence (O49064 with tags, fused parts or gaps DEL47-91): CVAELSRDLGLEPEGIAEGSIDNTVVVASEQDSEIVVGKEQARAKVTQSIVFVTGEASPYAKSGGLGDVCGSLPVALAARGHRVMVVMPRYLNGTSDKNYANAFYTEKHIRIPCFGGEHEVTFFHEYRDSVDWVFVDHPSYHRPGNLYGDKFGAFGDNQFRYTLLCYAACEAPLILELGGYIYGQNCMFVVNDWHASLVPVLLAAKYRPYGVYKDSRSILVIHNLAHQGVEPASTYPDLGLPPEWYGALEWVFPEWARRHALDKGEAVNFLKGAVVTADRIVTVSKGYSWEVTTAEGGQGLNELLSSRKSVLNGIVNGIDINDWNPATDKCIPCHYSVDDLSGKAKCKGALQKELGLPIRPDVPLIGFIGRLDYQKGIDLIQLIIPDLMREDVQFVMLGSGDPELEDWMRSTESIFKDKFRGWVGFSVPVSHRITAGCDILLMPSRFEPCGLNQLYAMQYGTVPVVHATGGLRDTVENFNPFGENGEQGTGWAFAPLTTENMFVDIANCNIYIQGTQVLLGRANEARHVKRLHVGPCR
Procedure: (SEQ ID NO:64). pExs8 encodes a truncated SSI, SSI-2, with amino acids # 8-52 deleted from the N-terminus of SSI-1 and which has the N-terminal sequence CVAELSR/DLG (SEQ ID NO:65). pExs1d encodes the most truncated form of SSI, SSI-3, with the first 93 amino acids deleted from SSI-1 and which has the N-terminal sequence [sequence]
5 mL of supernatant were used to assay STS and SBE activities as previously described (Preiss) with minor modification. The reaction mixture for STS contained 100 mM Bicine buffer, 10 mg/mL glycogen, 0.5 mg/mL BSA, 0.5 M sodium citrate, 25 mM potassium acetate, 10 mM GSH, 3 mM [^14C]-ADPGlc (500 dpm/nmol) and enzyme in a final volume of 0.1 mL. The reaction was carried out at 25° C. for 15 min and terminated by boiling for 2 min. The unincorporated [^14C]-ADPGlc was separated with Dowex anion exchange column (200-400 mesh, Sigma Chemical Co.). One unit of activity is defined as 1 nmol Glc incorporated into the a-glucan per min at 25° C.
For the recombinant SS purification, the cell pellet was resuspended in sonication buffer (50 mM Tris-acetate, pH 7.5, 10 mM EDTA, and 5 mMDTT; 7 ml buffer per gram of cell mass), and cells were lysed using a Fisher 550 Sonic Dismembrator with 5×1 min. bursts with 30 sec. intervals. The homogenate was centrifuged at 9600 g for 30 minutes. SSI in the supernatant was then precipitated by slowly adding neutralized saturated ammonium sulfate to 40% saturation. After stirring on ice for an additional 50 minutes, proteins were collected by centrifugation at 12500 g for 45 minutes. The protein pellet was then redissolved in buffer A (50 mM Tris, pH 5.5, 1 mM EDTA, and 5 mM DTT) containing 0.1 M KCl and dialyzed against the same buffer, with one change of buffer. After dialysis, the sample was centrifuged at 13000 g for 20 minutes to remove insoluble materials. The resulting supernatant was loaded onto amylase affinity column pre-equilibrated with dialysis buffer, and the flow through was collected. […]

[3] = target: maize starch synthase SSIIa-2, N-terminally truncated SSIIa, first 176 amino acids deleted (493 amino acids), N-terminus GENVMNVI (SEQ ID NO:1) (Zea mays, UniProt A0A804PX87); assay: ADPGlc kinetics of starch synthase SSIIa-2; type: biochemical; settings: for Vmax (ADPGlc kinetics): amylopectin as primer
Excerpt: as §1, §2
For the recombinant SS purification, the cell pellet was resuspended in sonication buffer (50 mM Tris-acetate, pH 7.5, 10 mM EDTA, and 5 mMDTT; 7 ml buffer per gram of cell mass), and cells were lysed using a Fisher 550 Sonic Dismembrator with 5×1 min. bursts with 30 sec. intervals. The homogenate was centrifuged at 9600 g for 30 minutes. SSI in the supernatant was then precipitated by slowly adding neutralized saturated ammonium sulfate to 40% saturation. After stirring on ice for an additional 50 minutes, proteins were collected by centrifugation at 12500 g for 45 minutes. The protein pellet was then redissolved in buffer A (50 mM Tris, pH 5.5, 1 mM EDTA, and 5 mM DTT) containing 0.1 M KCl and dialyzed against the same buffer, with one change of buffer. After dialysis, the sample was centrifuged at 13000 g for 20 minutes to remove insoluble materials. The resulting supernatant was loaded onto […] pre-equilibrated with dialysis buffer, and the flow through was collected. The column was washed with 10 column volumes of buffer a containing 0.1 M KCl, and then with buffer A containing 0.5 M KCl and 0.5 M maltose, collecting fractions during both washes. The active fractions were pooled and dialyzed overnight against buffer A, with one change of buffer. The next day, the amylase column sample was filtered and applied to a mono Q 5/5 FPLC column (Pharmacia). After washing with buffer A, a 20 ml 0-0,4 M KCl gradient was employed. The active fractions were electrophoresed on an 8% SDS-PAGE gel (31) to determine the purity of SSI in those fractions; the fractions which were apparently homogeneous were pooled and concentrated using a Centricon-30 spin column (Amicon).

Sequence of maize starch synthase SSIIa-1, putative full length SSIIa (669 amino acids), N-terminus AEAEAGGK (SEQ ID NO:68) (A0A804PX87 entry or part of it): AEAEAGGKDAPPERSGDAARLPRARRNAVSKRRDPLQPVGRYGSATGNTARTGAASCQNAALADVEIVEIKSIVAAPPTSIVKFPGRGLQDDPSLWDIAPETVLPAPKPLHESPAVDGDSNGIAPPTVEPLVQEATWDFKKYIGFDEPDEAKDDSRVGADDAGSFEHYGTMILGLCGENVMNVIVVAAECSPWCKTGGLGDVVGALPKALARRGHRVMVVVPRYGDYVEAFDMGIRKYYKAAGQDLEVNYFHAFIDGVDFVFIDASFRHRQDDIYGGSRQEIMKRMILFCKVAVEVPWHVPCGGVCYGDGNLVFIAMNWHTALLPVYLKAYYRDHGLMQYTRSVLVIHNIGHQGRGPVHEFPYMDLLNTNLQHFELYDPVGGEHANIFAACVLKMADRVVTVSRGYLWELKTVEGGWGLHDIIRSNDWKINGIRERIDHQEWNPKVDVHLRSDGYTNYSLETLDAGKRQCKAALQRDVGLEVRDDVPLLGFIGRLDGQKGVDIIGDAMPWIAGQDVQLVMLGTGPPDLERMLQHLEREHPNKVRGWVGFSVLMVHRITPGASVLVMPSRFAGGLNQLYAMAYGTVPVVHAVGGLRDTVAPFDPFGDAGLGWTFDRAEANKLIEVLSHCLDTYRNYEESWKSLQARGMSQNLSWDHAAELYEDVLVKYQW
Sequence of maize starch synthase SSIIa-2, N-terminally truncated SSIIa, first 176 amino acids deleted (493 amino acids), N-terminus GENVMNVI (SEQ ID NO:1) (A0A804PX87 entry or part of it, stated change not applied): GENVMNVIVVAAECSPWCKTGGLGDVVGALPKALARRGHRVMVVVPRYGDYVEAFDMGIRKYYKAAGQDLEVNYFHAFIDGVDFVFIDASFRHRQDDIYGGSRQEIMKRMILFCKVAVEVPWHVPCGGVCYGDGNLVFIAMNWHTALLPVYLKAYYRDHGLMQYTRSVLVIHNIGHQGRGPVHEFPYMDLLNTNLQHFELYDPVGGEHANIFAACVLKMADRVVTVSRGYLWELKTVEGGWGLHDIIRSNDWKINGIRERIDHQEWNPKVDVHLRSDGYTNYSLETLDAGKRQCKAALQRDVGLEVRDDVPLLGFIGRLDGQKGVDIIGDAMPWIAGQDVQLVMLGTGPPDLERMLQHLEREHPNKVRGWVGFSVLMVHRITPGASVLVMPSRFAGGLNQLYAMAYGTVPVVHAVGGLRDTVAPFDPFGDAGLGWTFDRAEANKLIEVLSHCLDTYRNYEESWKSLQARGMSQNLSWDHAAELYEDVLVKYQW

SMILES: Nc1ncnc2c1ncn2[C@@H]1O[C@H](COP(=O)(O)OP(=O)(O)O[C@H]2O[C@H](CO)[C@@H](O)[C@H](O)[C@H]2O)[C@@H](O)[C@H]1O [ADPGlc, adenosine diphosphate glucose]
- Vmax (ADPGlc kinetics) ([1]; +citrate): 23.0 ± 2.5 μmol/min/mg protein
- Vmax (ADPGlc kinetics) ([1]; −citrate): 12.1 ± 0.8 μmol/min/mg protein
- increase of Km of ADPGlc upon raising the assay temperature ([1]; from 27° C. to 37° C.): 2 fold
- Vm (ADPGlc kinetics) ([2]; +citrate): 32.6 ± 0.8 μmol/min/mg protein
- Vm (ADPGlc kinetics) ([2]; −citrate): 11.7 ± 0.7 μmol/min/mg protein
- Km for ADPGlc compared with SSIIa-1 ([3]; all assay conditions used except glycogen primer at 27° C.): lower Km for ADPGlc
- Vmax (ADPGlc kinetics) ([3]; +citrate, 27° C.): 4.83 ± 0.42 μmol/min/mg protein
- Vmax (ADPGlc kinetics) ([3]; +citrate, 37° C.): 11.4 ± 0.6 μmol/min/mg protein
- Vmax (ADPGlc kinetics) ([3]; −citrate, 27° C.): 4.87 ± 0.25 μmol/min/mg protein
- Vmax (ADPGlc kinetics) ([3]; −citrate, 37° C.): 7.86 ± 0.53 μmol/min/mg protein
- effect of raising temperature on Km for ADPGlc ([3]; from 27° C. to 37° C.): not affected by raising temperature
